Data reported in the supplement of paper PMC10307832.

Experiments:
Test in all cases: relative viability (nuclei count vs DMSO), 5 days (fraction); higher = more cells survive
[1] = compound: O=C(Nc1cc(C(F)(F)F)cc(C(F)(F)F)c1)c1cc(Cl)ccc1O [IMD-0354] + CC(=O)Nc1cccc(-n2c(=O)n(C3CC3)c(=O)c3c(Nc4ccc(I)cc4F)n(C)c(=O)c(C)c32)c1 [Trametinib] (partner 0.02 µM)
How it was run: (§1)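 Relative viability was taken as the ratio of nuclei in treated wells to nuclei in vehicle wells. Lung cancer cell lines in 1536-well plates received compounds by pin tool one day after seeding, either one drug alone or a fixed anchor-drug dose plus five library-drug doses (not always all listed) in √10 steps. Nuclei were counted on 4× images after 5 days of treatment, and values are medians of duplicate plates.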

[2] = compound: O=C(Nc1cc(C(F)(F)F)cc(C(F)(F)F)c1)c1cc(Cl)ccc1O [IMD-0354] + Nc1nc2[nH]cc(CCc3ccc(C(=O)N[C@@H](CCC(=O)O)C(=O)O)cc3)c2c(=O)[nH]1 [Pemetrexed] (partner 0.2 µM)
How it was run: as §1

[3] = compound: O=C(Nc1cc(C(F)(F)F)cc(C(F)(F)F)c1)c1cc(Cl)ccc1O [IMD-0354] + COc1cc2c(Oc3ccc(NC(=O)C4(C(=O)Nc5ccc(F)cc5)CC4)cc3F)ccnc2cc1OCCCN1CCOCC1 [Foretinib] (partner 0.25 µM)
How it was run: as §1

[4] = compound: Cc1cnc(CNC(=O)c2c(=O)c3ccc(N4CCCN(C)CC4)nc3n3c2sc2ccccc23)cn1 [CX-5461] + Nc1nc2[nH]cc(CCc3ccc(C(=O)N[C@@H](CCC(=O)O)C(=O)O)cc3)c2c(=O)[nH]1 [Pemetrexed] (partner 0.2 µM)
How it was run: as §1

| Cell Line | relative viability ([1]; first compound 0.04 µM) | relative viability ([1]; first compound 0.1265 µM) | relative viability ([1]; first compound 0.4 µM) | relative viability ([1]; first compound 1.265 µM) | relative viability ([1]; first compound 4 µM) | relative viability ([2]; first compound 0.04 µM) | relative viability ([2]; first compound 0.1265 µM) | relative viability ([2]; first compound 0.4 µM) | relative viability ([2]; first compound 1.265 µM) | relative viability ([2]; first compound 4 µM) | relative viability ([3]; first compound 0.04 µM) | relative viability ([3]; first compound 0.1265 µM) | relative viability ([3]; first compound 0.4 µM) | relative viability ([3]; first compound 1.265 µM) | relative viability ([3]; first compound 4 µM) | relative viability ([4]; first compound 0.01 µM) | relative viability ([4]; first compound 0.03162 µM) | relative viability ([4]; first compound 0.1 µM) | relative viability ([4]; first compound 0.3162 µM) | relative viability ([4]; first compound 1 µM) |
| --- | --- | --- | --- | --- | --- | --- | --- | --- | --- | --- | --- | --- | --- | --- | --- | --- | --- | --- | --- | --- |
| NCI-H2087 | 0.18 | 0.183 | 0.125 | 0.097 | 0.116 | 0.721 | 0.688 | 0.345 | 0.0911 | 0.106 | 1.08 | 1.04 | 0.382 | 0.257 | 0.189 | 0.689 | 0.657 | 0.684 | 0.712 | 0.654 |
| NCI-H1437 | 0.538 | 0.486 | 0.325 | 0.194 | 0.191 | 0.321 | 0.338 | 0.221 | 0.191 | 0.202 | 1.34 | 1.16 | 0.624 | 0.424 | 0.251 | 0.31 | 0.307 | 0.268 | 0.307 | 0.29 |
| NCI-H2342 | 0.763 | 0.743 | 0.731 | 0.77 | 0.565 | 0.814 | 0.822 | 0.585 | 0.508 | 0.408 | 1.08 | 0.98 | 0.794 | 0.735 | 0.453 | 0.764 | 0.815 | 0.751 | 0.744 | 0.745 |
| ChaGo-K-1 | 0.918 | 0.872 | 0.68 | 0.718 | 0.233 | 0.26 | 0.259 | 0.269 | 0.23 | 0.208 | 0.998 | 0.875 | 0.747 | 0.531 | 0.258 | 0.251 | 0.256 | 0.243 | 0.214 | 0.255 |
| NCI-H650 | 0.987 | 1.07 | 1.05 | 0.681 | 0.232 | 1.05 | 0.97 | 0.793 | 0.436 | 0.169 | 1.07 | 0.961 | 0.832 | 0.515 | 0.234 | 1.05 | 0.986 | 0.879 | 0.943 | 0.873 |
| COR-L23 | 0.64 | 0.576 | 0.458 | 0.118 | 0.163 | 0.205 | 0.202 | 0.206 | 0.182 | 0.108 | 0.833 | 0.844 | 0.349 | 0.138 | 0.131 | 0.283 | 0.187 | 0.207 | 0.157 | 0.201 |
| COR-L 105 | 0.435 | 0.448 | 0.455 | 0.342 | 0.318 | 1.14 | 1.23 | 0.802 | 0.699 | 0.402 | 1.25 | 0.808 | 0.67 | 0.932 | 0.296 | 1.13 | 0.943 | 1.03 | 1.16 | 0.706 |
| NCI-H1395 | 1.07 | 1.04 | 1.01 | 0.453 | 0.388 | 0.986 | 0.81 | 0.616 | 0.334 | 0.323 | 1.08 | 0.969 | 0.98 | 0.449 | 0.306 | 0.835 | 0.846 | 0.816 | 0.437 | 0.488 |
| 201T | 0.732 | 0.74 | 0.611 | 0.727 | 0.319 | 0.271 | 0.343 | 0.368 | 0.319 | 0.234 | 1.18 | 1.18 | 1.05 | 0.235 | 0.178 | 0.324 | 0.302 | 0.329 | 0.318 | 0.318 |
| NCI-H596 | 0.843 | 0.649 | 0.639 | 0.659 | 0.512 | 0.546 | 0.526 | 0.344 | 0.461 | 0.396 | 0.901 | 0.844 | 0.634 | 0.917 | 0.307 | 0.47 | 0.45 | 0.523 | 0.504 | 0.48 |
| H3255 | 0.612 | 0.664 | 0.472 | 0.49 | 0.311 | 0.588 | 0.587 | 0.518 | 0.426 | 0.318 | 0.836 | 1.02 | 0.785 | 0.433 | 0.283 | 0.608 | 0.564 | 0.553 | 0.557 | 0.57 |
| NCI-H647 | 0.432 | 0.616 | 0.175 | 0.107 | 0.0901 | 0.182 | 0.148 | 0.185 | 0.111 | 0.0986 | 1.57 | 1.27 | 0.426 | 0.554 | 0.148 | 0.186 | 0.165 | 0.176 | 0.194 | 0.158 |
| NCI-H2023 | 0.473 | 0.504 | 0.366 | 0.0709 | 0.115 | 0.217 | 0.212 | 0.118 | 0.0926 | 0.103 | 0.938 | 0.867 | 0.571 | 0.225 | 0.0843 | 0.218 | 0.246 |  | 0.19 | 0.111 |
| NCI-H23 | 0.456 | 0.344 | 0.28 | 0.144 | 0.162 | 0.78 | 0.693 | 0.324 | 0.18 | 0.235 | 0.969 | 0.955 | 0.49 | 0.265 | 0.232 | 0.524 | 0.862 | 0.7 | 0.71 | 0.508 |
